Test results reported in patent US20100004159A1, “SUBSTITUTED IMIDAZOLONE DERIVATIVES, PREPARATIONS AND USES” (GENFIT, priority 2006, published 2010).

Columns and labels:
[1] = molecular target: T1, angiotensin II AT1 receptor (Oryctolagus cuniculus, UniProt P34976); experiment: Ex vivo agonist/antagonist activity on isolated rabbit thoracic aorta rings; conditions: 0.3, 3 and 30 μM; for agonist activity (contraction): non-treated rabbit thoracic aorta; for antagonist activity (inhibition of contractile response to angiotensin II): rabbit thoracic aorta previously exposed to angiotensin II 0.003 μM
T1 construct: tissue CEREP; host or cells: rabbit thoracic aorta rings
T1 sequence (P34976 1-359): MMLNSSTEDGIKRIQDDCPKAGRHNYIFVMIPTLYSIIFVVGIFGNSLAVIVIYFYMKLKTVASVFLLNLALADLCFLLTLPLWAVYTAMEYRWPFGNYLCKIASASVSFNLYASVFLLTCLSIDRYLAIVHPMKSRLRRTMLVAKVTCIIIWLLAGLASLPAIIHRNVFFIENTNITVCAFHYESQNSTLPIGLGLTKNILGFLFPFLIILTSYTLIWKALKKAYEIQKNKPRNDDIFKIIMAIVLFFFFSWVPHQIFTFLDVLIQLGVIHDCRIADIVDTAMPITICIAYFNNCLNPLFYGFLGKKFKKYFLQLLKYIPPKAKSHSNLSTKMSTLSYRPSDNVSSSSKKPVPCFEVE
Procedure: This activity is either agonist or antagonist and was evaluated ex vivo on isolated organs. Agonist activity corresponds to tissue contraction. Antagonist activity corresponds to tissue dilatation.
The ex vivo test was performed at the CEREP (Celle L'Evescault, France (86)) following a protocol based on Pendleton et al. (Pendleton R G et al.,1989). Rabbit thoracic aorta rings with intact endothelium were suspended in baths for organs containing an oxygenated physiologic saline solution (95% O2 and 5% CO2) and preheated (37° C.) having the following composition (mM): NaCl 118.0, KCl 4.7, MgSO4 1.2, CaCl2 2.5, KH2PO4 1.2, NaHCO3 25.0, and glucose 11.0 (pH 7.4).
Benextramine (1 μM), propranolol (1 μM), pyrilamine (1 μM), atropine (1 μM), methysergide (1 μM), and captopril (0.1 μM) were also used in all carried out experiments to block respectively α-adrenergic, β-adrenergic, histaminic H1 muscarinic, and 5-HT2 receptors as well as to prevent peptide degradation. The tissues were bound to a force sensor suitable for isometric tension recording. They were stretched to a resting tension of 4 g, then stabilized for 60 minutes. During the stabilization, they were washed several times and the tension was adjusted. The experiments were carried out using semi-automatic systems of isolated organs with eight organ baths and multichannel data acquisition.
The tissues were exposed to a submaximal concentration of the reference agonist (angiotensin II at 0.003 μM) to verify the response and obtain a control contractile response.
After several washing operations and after having recovered the basal tone, the tissues were exposed to increasing concentrations of compounds according to the invention or the same agonist. The different concentrations were added cumulatively, each one was left in contact with the tissues until a stable response was reached and for a maximum of 30 minutes. If an agonist type response (contraction) was registered, the reference antagonist (Saralasine at 0.01 μM) was tested regarding the highest concentration of the compounds according to the invention to confirm the involvement of the AT1 receptors in the response.
After stabilization of the contraction induced by angiotensin II, increasing concentrations of compounds according to the invention or of the reference antagonist (Saralasine) were added cumulatively. Each concentration was left in contact with the tissues until a stable response was observed and for a maximum of 30 minutes.
The inhibiting effect of the compounds according to the invention on the contraction induced by the angiotensin 11 indicates antagonist activity on AT1 receptors.

[2] = test system: Wistar rats under perfusion of angiotensin II; experiment: Arterial pressure of Wistar rats under angiotensin II perfusion; format: in vivo, rat; conditions: angiotensin II perfusion 100 ng/kg/min; intravenous increasing doses 1, 3, 10 and 30 mpk
Procedure: This experimental procedure is intended to show the anti-hypertensive effects of the compounds according to the invention in Wistar rats in which hypertension is induced either by continuous intravenous administration of angiotensin II (example 21.1) or by repeated intravenous administration of angiotensin II (example 21.2). The animals were treated with the compounds according to the invention intravenously at increasing doses. To validate the study, the control animals were administered, in the same conditions, either the vehicle itself or a reference.
Wistar rats (males—200-250 g—5-6 weeks old—CERJ) were anesthetized for surgery using pentobarbital (50 mg/kg). A catheter was placed in the right jugular vein for the angiotensin II perfusion. A catheter was placed in the left jugular vein for the administration of the compounds according to the invention. The angiotensin II perfusion at 100 ng/kg/min was performed using an auto-syringe set at 5 ml/hour (vehicle NaCl 0.15M). A solution of Na2CO3/NaHCO3 (50 mM pH 9.6) served as the vehicle for the compounds according to the invention. Arterial pressure was measured using a sensor set in the carotid artery via a catheter.
The arterial pressure of the animal was measured for few minutes in basal conditions, before the angiotensin II perfusion was put into place. […]

[3] = test system: SHR rats (spontaneous hypertensive rats); experiment: SHR rats treated 14 days: plasma triglycerides, arterial pressure, response to angiotensin II; format: in vivo, rat
Procedure: SHR rats (spontaneous hypertensive rats) (male sex—300-320 g—16-weeks old—Charles River France) were kept on a light/dark cycle of 12/12 hours at a constant temperature of 20±3° C. The compounds according to the invention being tested were suspended in carboxymethylcellulose (Sigma c4888) and administered to the animals by intra-gastric gavage, once a day for 14 days at the chosen doses. The animals had free access to food and water.
At the end of the experiment, after a 5-hour fast, the animals were anesthetized for surgery with pentobarbital (50 mg/kg). A catheter treated with heparin was placed in the carotid artery to measure arterial pressure. A second catheter was placed in the jugular vein to administer angiotensin II. Arterial pressure was measured and recorded at basal tone for 15 minutes. At this stage, the average arterial pressure of the control animals is compared to that of the animals having received the compounds according to the invention. After 15 minutes, three successive intravenous administrations of angiotensin II (50 ng/kg) were performed to evaluate the response to angiotensin II of animals treated with the compounds according to the invention.
At the end of the arterial pressure measurements, a blood sample was taken using anticoagulant (EDTA), then the animals were euthanized. The plasma was separated by centrifugation at 3000 rotations/minute for 20 minutes. The samples were kept at +4° C.
Plasma total concentrations of cholesterol, triglycerides, free fatty acids, and glucose were measured by enzymatic assays (bioMerieux-Lyon-France and Wako-Japan) according to the provider's recommendations.

Compound | agonist activity (contraction) [1] | antagonist activity (inhibition of contractile response to angiotensin II) [1] | arterial pressure: antagonist effect on angiotensin II [2] | arterial pressure before administrations of angiotensin II ([3]; 14 days of treatment, 150 mpk) | plasma triglyceride rate ([3]; 14 days of treatment, 150 mpk, intra-gastric) | hypertension induced by angiotensin II (difference of arterial pressure) ([3]; 14 days of treatment, 150 mpk, three intravenous administrations of angiotensin II 50 ng/kg) | melting point [°C] | hypertension induced by angiotensin II (difference of arterial pressure) ([3]; chronic treatment, 100 mpk, repeated administrations of angiotensin II)
CCCCC1=NC2(CCCC2)C(=O)N1Cc1ccc(-c2cccc(OC(C)(C)C(=O)O)c2)cc1 [Compound 1, 2-butyl-1-[(3′-((1-carboxy-1,1-dimethylmethyl)oxy)biphenyl-4-yl)methyl]-4-spirocyclopentyl-1H-imidazol-5(4H)-one] | do not induce contraction | inhibiting effect of the contractile response of the reference agonist | antagonist effect on angiotensin II in a significant and dose-dependent way | antihypertensive effect | unexpectedly decreased | significant antagonist effect on angiotensin II | 169 to 171 | –
CCCCC1=NC2(CCCCC2)C(=O)N1Cc1ccc(-c2cccc(OC(C)(C)C(=O)O)c2)cc1 [Compound 21, 2-butyl-1-[(3′-((1-carboxy-1,1-dimethylmethyl)oxy)biphenyl-4-yl)methyl]-4-spirocyclohexyl-1H-imidazol-5(4H)-one] | do not induce contraction | inhibiting effect of the contractile response of the reference agonist | antagonist effect on angiotensin II in a significant and dose-dependent way | – | – | – | 160 to 162 | significant antagonist effect on angiotensin II
